# Earlier results in patent US20040224076A1, “Dietetic composition in the form of a salt substitute for table salt” (priority 1998, published 2004).
# Details: oral supplementation, meta-analysis of 33 studies
smiles,measurement,value
[K+] [potassium],reduction for diastolic pressure,1.97 mm Hg
same,reduction for systolic pressure,3.11 mm Hg
